Like-named read-outs stand apart in the source and are kept apart here.
How the values were obtained:
[1] = tested on: HCT116 FOP control reporter cell line; experiment: HCT116 FOPFlash control reporter assay (FOP control vector, non-functional TCF elements); type: cell-based; settings: HCT116 FOP control reporter cells, 36 hours incubation, luciferase expression
Excerpt: (§1) In a parallel approach, HCT116 cells were cotransfected with the FOP control vector and pcDNA3. The FOP vector is identical to the TOP construct, but it contains instead of functional TCF elements a randomized, non-functional sequence. For this transfection a stable transfected cell line was generated as well.

[2] = tested on: HEK293 FOP control reporter cell line; experiment: HEK293 FOP control reporter assay; type: cell-based, human; settings: read-out: HEK FOP IC50
Method: (§2) Measurement of luciferase expression was done as described for the constitutive active Wnt assay.
as §1, with “HEK293” for “HCT116”, “well, based on selection with Geneticin (1 mg/ml).” for “well.”

[3] = tested on: constitutive active colorectal cancer cell (CRC) Wnt pathway; experiment: HCT116 TOPFlash cellular reporter assay (Super TopFlash luciferase), constitutive active Wnt pathway; type: cell-based; settings: HCT116 TOP reporter cells, 36 hours incubation, luciferase expression
Method: In order to discover and characterize small molecules which inhibit the constitutive active colorectal cancer cell (CRC) Wnt pathway, a cellular reporter assay was employed. […] Stable transfectants were generated by cotransfection with pcDNA3 and selection of stable transfected cells with 1 mg/ml G418.

wildtype Wnt pathway = experiment: HEK293 TOP reporter assay, wildtype Wnt pathway stimulated with Wnt-3a; type: cell-based, human; settings: read-out: HEK TOP OncoFlash IC50
Method: as §2
In order to discover and characterize small molecules which inhibit the wildtype Wnt pathway, a cellular reporter assay was employed. […] Stable transfectants were generated by selection with 300 μg/ml Hygromycin.

[4] = HEK293 FOP control cells, EC50 concentration of recombinant Wnt-3a, 16 hours

With `C[C@@H](C(=O)Nc1cc(C(=O)Nc2ccc(-c3ccccc3F)nc2)ccc1OC(F)(F)F)N1CCN(C)CC1` (single isomer, unassigned) [Example 65, N-[6-(2-fluorophenyl)pyridin-3-yl]-3-{[(2S)-2-(4-methylpiperazin-1-yl)propanoyl]amino}-4-(trifluoromethoxy)benzamide or N-[6-(2-fluorophenyl)pyridin-3-yl]-3-{[(2R)-2-(4-methylpiperazin-1-yl)propanoyl]amino}-4-(trifluoromethoxy)benzamide] the IC50 [1] was ≥ 50 µM and the IC50 [2, 4] was ≥ 50 µM.

Work on `C[C@H](C(=O)Nc1cc(C(=O)Nc2ccc(-c3ccc(N(C)C)cc3)nc2)ccc1OC(F)(F)F)N1CCOCC1` (single isomer, unassigned) [Example 115, N-{6-[4-(dimethylamino)phenyl]pyridin-3-yl}-3-{[(2S)-2-(morpholin-4-yl)propanoyl]amino}-4-(trifluoromethoxy)benzamide or N-{6-[4-(dimethylamino)phenyl]pyridin-3-yl}-3-{[(2R)-2-(morpholin-4-yl)propanoyl]amino}-4-(trifluoromethoxy)benzamide] yielded an IC50 [3] of 0.0088 µM, an IC50 [1] of 2.2 µM and an IC50 (wildtype Wnt pathway; HEK293 TOP cells, EC50 concentration of recombinant Wnt-3a, 16 hours) of 0.052 µM. The IC50 [2, 4] was 4.7 µM.

`COc1ccc(C(=O)Nc2ccc(-c3ccccc3F)nc2)cc1NC(=O)CN1CCOCC1` [Example 1, N-[6-(2-fluorophenyl)pyridin-3-yl]-4-methoxy-3-[(morpholin-4-ylacetyl)amino]benzamide] was tested, and the IC50 ([3]; Homo sapiens, HCT-116, 36 h) was 1.14 µM, the IC50 ([1]; Homo sapiens, HCT-116, 36 h) was ≥ 50 µM and the IC50 (wildtype Wnt pathway; Homo sapiens, HEK293, 16 h) was 3.3 µM. The IC50 ([2]; Homo sapiens, HEK293, 16 h) was ≥ 50 µM.

`O=C(CN1CCOCC1)Nc1cc(C(=O)Nc2ccc(-c3ccccc3)nc2)ccc1OC(F)(F)F` [Example 15, 3-[(morpholin-4-ylacetyl)amino]-N-(6-phenylpyridin-3-yl)-4-(trifluoromethoxy)benzamide] was tested, and the IC50 ([3]; Homo sapiens, HCT-116, 36 h) was 0.137 µM, the IC50 ([1]; Homo sapiens, HCT-116, 36 h) was ≥ 50 µM and the IC50 (wildtype Wnt pathway; Homo sapiens, HEK293, 16 h) was 0.048 µM. For the same molecule, the IC50 ([2]; Homo sapiens, HEK293, 16 h) was ≥ 50 µM.

For `O=C(CN1CCOCC1)Nc1cc(NC(=O)c2ncc(-c3ccccc3)s2)ccc1OC(F)(F)F` [Example 16, N-{3-[(morpholin-4-ylacetyl)amino]-4-(trifluoromethoxy)phenyl}-5-phenyl-1,3-thiazole-2-carboxamide], the IC50 ([3]; Homo sapiens, HCT-116, 36 h) was 0.0178 µM, the IC50 ([1]; Homo sapiens, HCT-116, 36 h) was ≥ 50 µM and the IC50 (wildtype Wnt pathway; Homo sapiens, HEK293, 16 h) was 0.092 µM. The IC50 ([2]; Homo sapiens, HEK293, 16 h) was ≥ 50 µM.

In the case of `O=C(CN1CCOCC1)Nc1cc(NC(=O)c2ccc(-c3ccccc3)s2)ccc1OC(F)(F)F` [Example 17, N-{3-[(morpholin-4-ylacetyl)amino]-4-(trifluoromethoxy)phenyl}-5-phenylthiophene-2-carboxamide], the IC50 ([3]; Homo sapiens, HCT-116, 36 h) is reported as 0.043 µM, the IC50 ([1]; Homo sapiens, HCT-116, 36 h) is reported as ≥ 50 µM and the IC50 (wildtype Wnt pathway; Homo sapiens, HEK293, 16 h) is reported as 0.033 µM. For the same molecule, the IC50 ([2]; Homo sapiens, HEK293, 16 h) was ≥ 50 µM.

For `CC(C)(C)c1ccc(NC(=O)c2ccc(-c3ccccc3)s2)cc1NC(=O)CN1CCOCC1` [Example 19, N-{4-tert-butyl-3-[(morpholin-4-ylacetyl)amino]phenyl}-5-phenylthiophene-2-carboxamide], the IC50 ([3]; Homo sapiens, HCT-116, 36 h) was 0.0262 µM, the IC50 ([1]; Homo sapiens, HCT-116, 36 h) was 11 µM and the IC50 (wildtype Wnt pathway; Homo sapiens, HEK293, 16 h) was 0.99 µM. For the same molecule, the IC50 ([2]; Homo sapiens, HEK293, 16 h) was ≥ 50 µM.

`COc1ccc(NC(=O)c2ccc(-c3ccccc3)s2)cc1NC(=O)CN1CCOCC1` [Example 25, N-{4-methoxy-3-[(morpholin-4-ylacetyl)amino]phenyl}-5-phenylthiophene-2-carboxamide] was tested, and the IC50 ([3]; Homo sapiens, HCT-116, 36 h) was 0.326 µM, the IC50 ([1]; Homo sapiens, HCT-116, 36 h) was ≥ 50 µM and the IC50 (wildtype Wnt pathway; Homo sapiens, HEK293, 16 h) was 0.09 µM. It also gave an IC50 ([2]; Homo sapiens, HEK293, 16 h) of 10 µM.

In the case of `O=C(CN1CCOCC1)Nc1cc(NC(=O)c2ccc(-c3ccccc3F)nc2)ccc1OC(F)(F)F` [Example 30, 6-(2-fluorophenyl)-N-{3-[(morpholin-4-ylacetyl)amino]-4-(trifluoromethoxy)phenyl}nicotinamide], the IC50 ([3]; Homo sapiens, HCT-116, 36 h) is reported as 0.0901 µM, the IC50 ([1]; Homo sapiens, HCT-116, 36 h) is reported as ≥ 50 µM and the IC50 (wildtype Wnt pathway; Homo sapiens, HEK293, 16 h) is reported as 1.4 µM. The IC50 ([2]; Homo sapiens, HEK293, 16 h) was ≥ 50 µM.

With `CC(C(=O)Nc1cc(C(=O)Nc2nnc(-c3ccccc3)s2)ccc1OC(F)(F)F)N1CCOCC1` (stereo not shown) [Example 57, 3-{[2-(morpholin-4-yl)propanoyl]amino}-N-(5-phenyl-1,3,4-thiadiazol-2-yl)-4-(trifluoromethoxy)benzamide] the IC50 [1] was ≥ 50 µM and the IC50 ([2]; Homo sapiens, HEK293, 16 h) was ≥ 50 µM.

In the case of `O=C(Nc1ccc(OC(F)(F)F)c(NC(=O)C2(N3CCOCC3)CC2)c1)c1ccc(-c2ccccc2)nc1` [Example 61, N-[3-({[1-(morpholin-4-yl)cyclopropyl]carbonyl}amino)-4-(trifluoromethoxy)phenyl]-6-phenylnicotinamide], the IC50 ([2]; Homo sapiens, HEK293, 16 h) is reported as ≥ 50 µM.

With `O=C(CN1CCN(C2CC2)CC1)Nc1cc(C(=O)Nc2ccc(-c3ccccc3F)nc2)ccc1OC(F)(F)F` [Example 63, 3-{[(4-cyclopropylpiperazin-1-yl)acetyl]amino}-N-[6-(2-fluorophenyl)pyridin-3-yl]-4-(trifluoromethoxy)benzamide] the IC50 ([2]; Homo sapiens, HEK293, 16 h) was ≥ 50 µM.

`CC(C(=O)Nc1cc(C(=O)Nc2ccc(-c3ccccc3F)nc2)ccc1OC(F)(F)F)N1CCN(C)CC1` (stereo not shown) [Example 64, N-[6-(2-fluorophenyl)pyridin-3-yl]-3-{[2-(4-methylpiperazin-1-yl)propanoyl]amino}-4-(trifluoromethoxy)benzamide] was tested, and the IC50 ([2]; Homo sapiens, HEK293, 16 h) was ≥ 50 µM.

In the case of `O=C(Nc1ccc(-c2ccccc2F)nc1)c1ccc(OC(F)(F)F)c(NC(=O)C2(N3CCN(C4CC4)CC3)CC2)c1` [Example 67, 3-({[1-(4-cyclopropylpiperazin-1-yl)cyclopropyl]carbonyl}amino)-N-[6-(2-fluorophenyl)pyridin-3-yl]-4-(trifluoromethoxy)benzamide], the IC50 ([2]; Homo sapiens, HEK293, 16 h) is reported as ≥ 50 µM.

In the case of `O=C(Nc1ccc(-c2ccccc2F)nc1)c1ccc(OC(F)(F)F)c(NC(=O)C2(N3CCOCC3)CC2)c1` [Example 68, N-[6-(2-fluorophenyl)pyridin-3-yl]-3-({[1-(morpholin-4-yl)cyclopropyl]carbonyl}amino)-4-(trifluoromethoxy)benzamide], the IC50 ([2]; Homo sapiens, HEK293, 16 h) is reported as ≥ 50 µM.

With `O=C(Nc1ccc(-c2cc(F)cc(F)c2)nc1)c1ccc(OC(F)(F)F)c(NC(=O)C2(N3CCOCC3)CC2)c1` [Example 71, N-[6-(3,5-difluorophenyl)pyridin-3-yl]-3-({[1-(morpholin-4-yl)cyclopropyl]carbonyl}amino)-4-(trifluoromethoxy)benzamide] the IC50 ([2]; Homo sapiens, HEK293, 16 h) was ≥ 50 µM.

`NC(=O)c1ccc(C(=O)Nc2ccc(-c3ccccc3F)nc2)cc1NC(=O)C1(N2CCOCC2)CC1` [Example 75, N^4-[6-(2-fluorophenyl)pyridin-3-yl]-2-({[1-(morpholin-4-yl)cyclopropyl]carbonyl}amino)terephthalamide] was tested, and the IC50 ([2]; Homo sapiens, HEK293, 16 h) was ≥ 50 µM.

With `Cc1ccc(C(=O)Nc2ccc(-c3ccccc3F)nc2)cc1NC(=O)C1(N2CCOCC2)CC1` [Example 76, N-[6-(2-fluorophenyl)pyridin-3-yl]-4-methyl-3-({[1-(morpholin-4-yl)cyclopropyl]carbonyl}amino)benzamide] the IC50 ([2]; Homo sapiens, HEK293, 16 h) was ≥ 50 µM.

With `O=C(Nc1ccc(-c2ccccc2)cn1)c1ccc(OC(F)(F)F)c(NC(=O)C2(N3CCOCC3)CC2)c1` [Example 95, 3-({[1-(morpholin-4-yl)cyclopropyl]carbonyl}amino)-N-(5-phenylpyridin-2-yl)-4-(trifluoromethoxy)benzamide] the IC50 ([2]; Homo sapiens, HEK293, 16 h) was ≥ 50 µM.

With `CC(C(=O)Nc1cc(C(=O)Nc2ccc(-c3ccc(N)cc3)nc2)ccc1OC(F)(F)F)N1CCOCC1` (stereo not shown) [Example 111, N-[6-(4-aminophenyl)pyridin-3-yl]-3-{[2-(morpholin-4-yl)propanoyl]amino}-4-(trifluoromethoxy)benzamide] the IC50 ([2]; Homo sapiens, HEK293, 16 h) was ≥ 50 µM.

With `CC(=O)Nc1ccc(-c2ccc(NC(=O)c3ccc(OC(F)(F)F)c(NC(=O)C(C)N4CCOCC4)c3)cn2)cc1` (stereo not shown) [Example 113, N-[6-(4-acetamidophenyl)pyridin-3-yl]-3-{[2-(morpholin-4-yl)propanoyl]amino}-4-(trifluoromethoxy)benzamide] the IC50 ([2]; Homo sapiens, HEK293, 16 h) was ≥ 50 µM.

In the case of `O=C(Nc1ccc(-c2ccccc2F)nc1)c1ccc(OC2CC2)c(NC(=O)C2(N3CCN(C4CC4)CC3)CC2)c1` [Example 136, 4-(cyclopropyloxy)-3-({[1-(4-cyclopropylpiperazin-1-yl)cyclopropyl]carbonyl}amino)-N-[6-(2-fluorophenyl)pyridin-3-yl]benzamide], the IC50 ([2]; Homo sapiens, HEK293, 16 h) is reported as ≥ 50 µM.

In the case of `CN1CCN(CC(=O)Nc2cc(C(=O)Nc3nnc(-c4cccc(Cl)c4)s3)ccc2OC(F)(F)F)CC1` [Example 151, N-[5-(3-chlorophenyl)-1,3,4-thiadiazol-2-yl]-3-{[(4-methylpiperazin-1-yl)acetyl]amino}-4-(trifluoromethoxy)benzamide], the IC50 ([2]; Homo sapiens, HEK293, 16 h) is reported as ≥ 50 µM.

For “N-[6-(2-fluorophenyl)pyridin-3-yl]-3-{[(2S)-2-(4-methylpiperazin-1-yl)propanoyl]amino}-4-(trifluoromethoxy)benzamide or N-[6-(2-fluorophenyl)pyridin-3-yl]-3-{[(2R)-2-(4-methylpiperazin-1-yl)propanoyl]amino}-4-(trifluoromethoxy)benzamide [Example 66]”, the IC50 [3] was 0.011 µM, the IC50 [1] was ≥ 50 µM and the IC50 [2, 4] was ≥ 50 µM.

— patent publication US10130633B2, “Compounds” (BAYER PHARMA AKTIENGESELLSCHAFT, priority 2013, dated 2018)
